Source: ChEMBL document CHEMBL3739268, “Structure activity relationships of 4-hydroxy-2-pyridones: A novel class of antituberculosis agents” (Eur J Med Chem, 2015)
In brackets after ≈: the same amount, converted by molar mass.

Test system: Mycobacterium tuberculosis
Assay: Antituberculosis activity against multi-drug resistant Mycobacterium tuberculosis
Type: functional

SMILES	MIC
CC(C)Cc1cc(O)c(-c2ccccc2)c(=O)[nH]1	2.5 µM (≈ 0.608 µg/mL)
CC1(C)CCC(Cc2cc(O)c(-c3ccccc3)c(=O)[nH]2)CC1	0.04 µM (≈ 0.0125 µg/mL)
